Data set [1] deals with T1, MMP-1FL (full length interstitial collagenase) (Homo sapiens, UniProt P03956).
T1 sequence (P03956 100-469): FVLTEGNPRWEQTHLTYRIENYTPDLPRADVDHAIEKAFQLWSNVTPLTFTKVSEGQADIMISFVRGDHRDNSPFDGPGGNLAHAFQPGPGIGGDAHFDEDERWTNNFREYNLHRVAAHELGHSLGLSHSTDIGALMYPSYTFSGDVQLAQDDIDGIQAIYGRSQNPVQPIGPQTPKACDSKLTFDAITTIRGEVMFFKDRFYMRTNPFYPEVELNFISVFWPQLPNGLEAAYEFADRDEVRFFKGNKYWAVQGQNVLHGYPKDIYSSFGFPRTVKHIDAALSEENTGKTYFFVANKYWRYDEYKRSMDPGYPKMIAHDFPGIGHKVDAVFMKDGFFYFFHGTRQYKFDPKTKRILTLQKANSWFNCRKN
Kind of data set: Thiopeptolide substrate hydrolysis assay, MMP-1FL. As to conditions: HEPES pH 7.0, 22° C., read-out: IC50 (μM) Versus Certain MMPs: MMP-01 FL. It is filed as biochemical. From the text: (§1) The invention compounds of Formula I have been evaluated in standard assays for their ability to inhibit the catalytic activity of various MMP enzymes.
(§2) Thiopeptolide substrates show virtually no decomposition or hydrolysis at or below neutral pH in the absence of a matrix metalloproteinase enzyme.
(§3) Several representative compounds have been evaluated for their ability to inhibit various matrix metalloproteinase enzymes.

Data set [2] concerns the target MMP-14CD (catalytic domain of MMP-14) (Homo sapiens, UniProt P50281). Description: Thiopeptolide substrate hydrolysis assay, MMP-14CD. It is filed as biochemical. As to conditions: HEPES pH 7.0, 22° C., read-out: IC50 (μM) Versus Certain MMPs: MMP-14 CD.
Excerpt: as §1, §2, §3

For data set [3], the target named is MMP-9FL (full length Gelatinase B) (Homo sapiens, UniProt P14780). Description: Thiopeptolide substrate hydrolysis assay, MMP-9FL. It is filed as biochemical. Particulars: HEPES pH 7.0, 22° C., read-out: IC50 (μM) Versus Certain MMPs: MMP-09 FL.
Sequence of MMP-9FL (full length Gelatinase B) (P14780 94-707, species assumed): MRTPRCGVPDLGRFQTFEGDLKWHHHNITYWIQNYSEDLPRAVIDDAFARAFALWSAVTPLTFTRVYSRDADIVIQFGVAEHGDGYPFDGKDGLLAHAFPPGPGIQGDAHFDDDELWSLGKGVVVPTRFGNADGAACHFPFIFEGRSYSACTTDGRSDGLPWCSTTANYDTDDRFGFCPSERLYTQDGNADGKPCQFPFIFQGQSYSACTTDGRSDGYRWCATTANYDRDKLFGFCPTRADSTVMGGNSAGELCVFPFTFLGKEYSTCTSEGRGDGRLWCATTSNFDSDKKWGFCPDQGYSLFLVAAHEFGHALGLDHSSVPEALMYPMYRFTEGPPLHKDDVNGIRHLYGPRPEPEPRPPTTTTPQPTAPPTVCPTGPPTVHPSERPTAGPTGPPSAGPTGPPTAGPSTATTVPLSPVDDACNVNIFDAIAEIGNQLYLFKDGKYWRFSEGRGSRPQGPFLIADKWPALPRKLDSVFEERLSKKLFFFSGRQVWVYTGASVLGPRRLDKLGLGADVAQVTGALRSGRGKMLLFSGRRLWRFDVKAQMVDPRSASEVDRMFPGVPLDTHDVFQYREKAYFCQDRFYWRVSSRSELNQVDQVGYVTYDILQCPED
Excerpt: as §1, §2, §3

The target in data set [4] is MMP-13CD (catalytic domain of collagenase 3) (Homo sapiens, UniProt P45452). Kind of data set: Thiopeptolide substrate hydrolysis assay, MMP-13CD. It is filed as biochemical. Particulars: thiopeptolide substrate, HEPES pH 7.0, 22° C.
Excerpt: as §2

For data set [5], the target named is T2, MMP-7FL (full length matrilysin) (Homo sapiens, UniProt P09237).
T2 sequence (P09237 95-267): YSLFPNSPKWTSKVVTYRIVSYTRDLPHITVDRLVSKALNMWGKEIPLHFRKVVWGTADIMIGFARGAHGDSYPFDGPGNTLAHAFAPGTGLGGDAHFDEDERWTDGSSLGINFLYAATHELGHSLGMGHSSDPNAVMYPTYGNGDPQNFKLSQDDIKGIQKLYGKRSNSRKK
Kind of data set: Thiopeptolide substrate hydrolysis assay, MMP-7FL. Type of data set: biochemical. As to conditions: HEPES pH 7.0, 22° C., read-out: IC50 (μM) Versus Certain MMPs: MMP-07 FL.
Excerpt: as §1, §2, §3

Data set [6] concerns the target T3, MMP-2FL (full length Gelatinase A) (Homo sapiens, UniProt P08253).
T3 sequence (P08253 110-660): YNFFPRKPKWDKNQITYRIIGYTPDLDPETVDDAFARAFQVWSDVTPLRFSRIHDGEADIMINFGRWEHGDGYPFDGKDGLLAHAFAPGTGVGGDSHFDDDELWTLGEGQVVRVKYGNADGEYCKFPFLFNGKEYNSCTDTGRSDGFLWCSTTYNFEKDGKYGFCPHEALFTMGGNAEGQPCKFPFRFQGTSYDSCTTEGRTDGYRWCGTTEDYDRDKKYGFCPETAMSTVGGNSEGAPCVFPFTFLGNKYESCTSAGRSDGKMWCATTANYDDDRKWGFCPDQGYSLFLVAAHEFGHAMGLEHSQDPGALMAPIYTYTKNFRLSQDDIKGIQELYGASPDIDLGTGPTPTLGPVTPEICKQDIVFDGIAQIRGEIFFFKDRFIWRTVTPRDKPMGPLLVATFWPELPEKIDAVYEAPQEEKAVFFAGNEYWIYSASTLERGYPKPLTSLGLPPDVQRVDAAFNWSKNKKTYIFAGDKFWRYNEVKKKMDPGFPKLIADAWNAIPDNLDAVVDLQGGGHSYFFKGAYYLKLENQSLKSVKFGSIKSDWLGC
Description: Thiopeptolide substrate hydrolysis assay, MMP-2FL. Type of data set: biochemical. As to conditions: HEPES pH 7.0, 22° C., read-out: IC50 (μM) Versus Certain MMPs: MMP-02 FL.
Excerpt: as §1, §2, §3

For data set [7], the target named is MMP-3CD (catalytic domain of stromelysin-1) (Homo sapiens, UniProt P08254). Kind of data set: Thiopeptolide substrate hydrolysis assay, MMP-3CD. It is filed as biochemical. As to conditions: MES buffer pH 6.0, read-out: IC50 (μM) Versus Certain MMPs: MMP-03 CD. The protocol: as §1, §2, §3
Sequence of MMP-3CD (catalytic domain of stromelysin-1) (P08254 100-272 limits assumed): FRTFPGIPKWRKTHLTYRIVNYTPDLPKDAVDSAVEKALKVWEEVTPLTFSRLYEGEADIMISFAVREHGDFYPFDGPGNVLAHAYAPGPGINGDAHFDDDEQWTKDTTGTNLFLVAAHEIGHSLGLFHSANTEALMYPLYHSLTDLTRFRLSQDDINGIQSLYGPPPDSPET
It should be appreciated that the assay buffer used with MMP-3CD was 50 mM N-morpholinoethane sulfonate (−MES=) at pH 6.0 rather than the HEPES buffer at pH 7.0 described above.

Where [8] appears, read: read-out: IC50 (μM) Versus Certain MMPs: MMP-13 CD.
The mark [9] stands for this setting: IC50 (μM) Versus Certain MMPs: MMP-13 CD.

Counter-ions that a name gives are not always drawn. Like-named read-outs stand apart in the source and are kept apart here. Where only a bound is given, the exact number is not on record here.

On to `Cc1c(=O)n(Cc2ccccc2)c(=O)n2cc(C(=O)OCc3ccccc3)sc12` [Example 2, 6-Benzyl-8-methyl-5,7-dioxo-6,7-dihydro-5H-thiazolo[3,2-c]pyrimidine-2-carboxylic acid benzyl ester], for which the IC50 in data set [1] was greater than 100 µM.

`O=C(NCc1ccccc1)c1cn2c(=O)n(Cc3ccc(Cl)c(Cl)c3)c(=O)cc2s1` [Example 12, 6-(3,4-Dichlorobenzyl)-5,7-dioxo-6,7-dihydro-5H-thiazolo[3,2-c]pyrimidine-2-carboxylic acid benzylamide] displayed a melting point of 216 to 217 °C. Besides, the IC50 in data set [2] is greater than 30 µM. Besides, in data set [3], the IC50 was greater than 30 µM. Besides, the IC50 in data set [4] (setting [8]) came out at 0.293 µM. Further, in data set [5], the IC50 turned out to be 20 µM. Further, in data set [6], the IC50 is greater than 100 µM.

On to `Cc1c(=O)n(Cc2ccccc2)c(=O)n2cc(C(=O)NCc3ccc4[nH]ccc4c3)sc12` [Example 34, 6-Benzyl-8-methyl-5,7-dioxo-6,7-dihydro-5H-thiazolo[3,2-c]pyrimidine-2-carboxylic acid(1H-indol-5-ylmethyl)-amide], for which the melting point fell in the range of 189 to 191 °C. Half-maximal inhibition in data set [4] (setting [9]) (IC50) required 23 µM.

Regarding `COc1cc(CNC(=O)c2cn3c(=O)n(Cc4ccccc4)c(=O)c(C)c3s2)ccn1` [Example 37a, hydrochloride], the IC50 in data set [4] (setting [9]) is 0.0208 µM; in data set [5], 26 µM; in data set [7] it was 20.5 µM.

For the molecule `Cc1c(=O)n(Cc2ccccc2)c(=O)n2cc(C(=O)NCc3ccc4nsnc4c3)sc12` [Example 42, 6-Benzyl-8-methyl-5,7-dioxo-6,7-dihydro-5H-thiazolo[3,2-c]pyrimidine-2-carboxylic acid(2,1,3-benzothiadiazol-5-ylmethyl)-amide], the IC50 in data set [2] was greater than 100 µM; in data set [3], greater than 30 µM; in data set [5], greater than 30 µM; in data set [6], greater than 30 µM; in data set [7] it was 10 µM.

`Cc1c(=O)[nH]c(=O)n2ccsc12` [Example 53, 8-Methyl-thiazolo[3,2-c]pyrimidine-5,7-dione]: the melting point was greater than 230 °C. Moreover, the IC50 in data set [4] (setting [8]) was greater than 100 µM.

In the case of `Cc1c(=O)n(Cc2ccc(C(=O)O)cc2)c(=O)n2cc(C(=O)NCc3ccncc3)sc12` [Example 62, 4-{8-Methyl-5,7-dioxo-2-[(pyridin-4-ylmethyl)-carbamoyl]-7H-thiazolo[3,2-c]pyrimidin-6-ylmethyl}-benzoic acid trifluoro-acetate], the IC50 in data set [1] was greater than 100 µM.

Regarding `COC(=O)c1ccc(Cn2c(=O)c(C)c3sc(C(=O)NCc4ccc(F)cc4)cn3c2=O)cc1OC.Cl` [Example 69, 4-[2-(4-Fluoro-benzylcarbamoyl)-8-methyl-5,7-dioxo-7H-thiazolo[3,2-c]pyrimidin-6-ylmethyl]-2-methoxy-benzoic acid methyl ester], the melting point lay in the range of 191 to 193 °C. Moreover, in data set [2], the IC50 is greater than 30 µM. For the same molecule, the IC50 in data set [3] is greater than 30 µM. In addition, the IC50 in data set [5] is greater than 30 µM. For the same molecule, the IC50 in data set [6] was greater than 30 µM. Moreover, in data set [7], the IC50 is 10 µM.

With `Cc1c(=O)n(Cc2ccc(S(C)(=O)=O)cc2)c(=O)n2cc(C(=O)NCc3ccncc3)sc12` [Example 81, 6-(4-Methanesulfonyl-benzyl)-8-methyl-5,7-dioxo-6,7-dihydro-5H-thiazolo[3,2-c]pyrimidine-2-carboxylic acid(pyridin-4-ylmethyl)-amide hydrochloride], in data set [1], the IC50 is greater than 100 µM.

For the molecule `COC(=O)c1ccc(Cn2c(=O)c(C)c3sc(C(=O)NCc4ccc(OC)cc4)cn3c2=O)cc1` [Example 103, 4-[2-(4-Methoxy-benzylcarbamoyl)-8-methyl-5,7-dioxo-7H-thiazolo[3,2-c]pyrimidin-6-ylmethyl]-benzoic acid methyl ester], the melting point lay within 163 to 165 °C. The IC50 in data set [2] is greater than 100 µM. Moreover, the IC50 in data set [3] was greater than 100 µM. Moreover, in data set [4] (setting [8]), the IC50 is 0.0106 µM. Also, the IC50 in data set [5] is greater than 100 µM. In data set [6], the IC50 is 65 µM.

The values above are taken from patent publication US20060040957A1, “BICYCLIC PYRIMIDINE MATRIX METALLOPROTEINASE INHIBITORS” (priority 2001, published 2006).
